Source: patent publication EP2292241A1, “A SCUTELLARIN DERIVATIVE, THE PREPARING PROCESS, THE PHARMACEUTICAL COMPOSITION AND THE USE THEREOF” (Kunming Pharmaceutical Corp., priority 2008, dated 2009)

Legend:
[1] = toxic or adverse effect at high dosage in animal experiments; format: in vivo
[2] = test system: rats with MCAO induced focal cerebral ischemia; assay: focal cerebral ischemia induced by MCAO (middle cerebral artery occlusion) in rats; format: in vivo, SD rat; settings: for range of cerebral infarction: TTC stain, % of bilateral cerebral hemispheres weight; for behavior score: full score 12, higher = more severe; for rate of platelet aggregation: ADP-induced, turbidimetry; for range of cerebral infarction rate of decrease: compared with the modeling group; for indicators of coagulation APTT / indicators of coagulation FIB / indicators of coagulation PT / indicators of coagulation TT: plasma 24h after modeling
Method: Male SD rats, weighing 240~290g, grouping and dosages were as above. Additionally, a positive control group, i.e., nimodipine 50mg/kg group was set up. Animals of each group were gavage once daily for consecutive 5 days in predetermined dosage. At 30 minute after the last administration, the animals were anesthetized with 12% chloral hydrate in 350 mg/kg via intraperitoneal injection. The animals were kept left lateral position and the skin was cut along the middle point between right ear and eye line. Temporalis was separated and cheekbone was sheared. A holl was drilled with a dental drill in front of zygomatic root and MCA was exposed. The MCA was hooked with a needle between the vein and olfactory tract in the brain, then was broke, after bleeding was stopped with a cotton ball, muscle and skin layer was sutured in layer. For the sham group, except for no breaking of MCA, other steps were same.
The animals were scored on neurological functions at 6 hour and 24 hour after modeling, according to behavior such as movement. Such score was used as an indicator of brain dysfunction. […] The standards of grading were as follows;
The full score of the above standards is 12. The higher the score is, the more severe the behavior disorder is.
24 hour after modeling and after neurological scoring, blood was taken via carotid artery intubation in duplicate. For one sample, serum was separated and the activity of AST and LDH was determined according to the method of the kit; for another sample, it was treated with 3.8% sodium citrate in 1:9 for the purpose of anticoagulation, centrifuged at 1000rpm for 5 minutes to prepare platelet rich plasma (PRP), and centrifuged at 3500rpm for 10 minutes to prepare platelet poor plasma (PPP). The rate of platelet aggregation induced by ADP-2Na was determined according to turbidimetry, the final concentration of ADP was […]; TT, PT, APTT and FIB was determined according to the method of the kit, respectively. The brain was removed quickly by decollation after blood taking, and then placed into ice cold saline solution to remove olfactory bulb, cerebellum and brainstem. The brain was weighed after water being absorbed to dryness, and then cut into 5 pieces along the coronal, placed into a 5ml solution containing 4% TTC and 0.1ml K2HPO4 (1mol/L) and incubated for 30 minutes at 37°C and in darkness. During the course every 7 to 8 minutes a turning was made. […] The infracted part was cut and weighed. The percentage of infracted tissue accounting for the total weight of bilateral cerebral hemispheres was calculated by weight area method, which was the range of cerebral infarction.

[3] = test system: rats with myocardial ischemia caused by coronary artery ligation; assay: myocardial ischemia caused by coronary artery ligation in rats; format: in vivo, SD rat; settings: for rate of platelet aggregation: ADP-induced, turbidimetry; for range of myocardial infarction: TTC stain, infarcted part as % of ventricle weight; for range of myocardial infarction rate of decrease: compared with the modeling group; for indicators of coagulation APTT / indicators of coagulation FIB / indicators of coagulation PT / indicators of coagulation TT: plasma 24h after ligation
Method: Male SD rats of 330~385g were divided at random into sham group, model group, breviscapine tablet of 40mg/kg group, A1 20mg/kg group and A1 40mg/kg group. Animals of each group were gavage once daily for consecutive 5 days in predetermined dosage, for blank group and model group, the rats were given same volume of 0.5% CNC-Na in 10ml/kg body weight. At 30 minute after the last administration, the animals were anesthetized with 12% chloral hydrate in 350 mg/kg via intraperitoneal injection, then a thoracotomy was performed to render the heart exposed. The left anterior descending coronary artery was found between pulmonary artery cone and left ventricular and was ligated at 2-3mm to the root. Reposited the heart and closed the thoracic cavity. For the sham group, the suture was merely placed but not ligated.
II lead limb ECGs before ligation and at 5min, 30 min, 1h, 2h, 4h and 24h after ligation were recorded, respectively. The change of S-T segment (J point) was measured. After 24h ECG was recorded, blood was collected in duplicate via carotid artery intubation. For one sample, serum was separated and the activity of AST, LDH and CK-MB was determined according to the method of the kit; for another sample, it was treated with 3.8% sodium citrate in 1:9 for the purpose of anticoagulation, centrifuged at 1000rpm for 5 minutes to prepare platelet rich plasma (PRP), and centrifuged at 3500rpm for 10 minutes to prepare platelet poor plasma (PPP). The rate of platelet aggregation induced by ADP-2Na was determined according to turbidimetry, the final concentration of ADP was […]; TT, PT, APTT and FIB was determined according to the method of the kit, respectively. The heart was removed quickly after blood taking, and placed into ice cold saline solution to pump out deposit blood in thoracic cavity. The atria and adipose tissue were removed, and water was adsorbed to dryness. The ventricle was weighed, cut into 5 pieces along the coronal, then incubated and stained for 10 minutes in 1% TTC solution at 37°C in darkness. […] The infracted part was cut and weighed. The percentage of infracted part accounting for the total weight of ventricle was calculated, which was the range of myocardial infarction.

[4] = comparative study on solubilities (China Pharmacopeia 2005 terms); format: physicochemical; settings: terms per China Pharmacopeia 2005
Source text: Table 7 Comparison on solubilities of compound A1 of the present invention and scutellarin

[5] = 20mg/kg, serum 24h after ligation
[6] = 40mg/kg, serum 24h after ligation

COc1ccc(-c2cc(=O)c3c(OC)c(OC)c(OC4O[C@H](C(=O)O)[C@@H](O)[C@H](O)[C@H]4O)cc3o2)cc1 (stereo partly shown) [A1, 4',5,6-trimethoxylscutellarin]
toxic or adverse effect [1]: No toxic or adverse effect was found
body weight 6h after surgery ([2]; 20mg/kg): 258.3 ± 11.9 g
body weight 24h after surgery ([2]; 20mg/kg): 250.0 ± 15.1 g
body weight prior to surgery ([2]; 20mg/kg): 268.8 ± 12.4 g
range of cerebral infarction ([2]; 20mg/kg gavage once daily 5 days): 2.36±1.81 %
behavior score ([2]; 20mg/kg, 6h after modeling): 6.42±1.62
serum enzymes AST ([2]; 20mg/kg, 24h after modeling): 171.2±71.6 u/L
serum enzymes LDH ([2]; 20mg/kg, 24h after modeling): 571.1±287.5 u/L
behavior score ([2]; 20mg/kg, 24h after modeling): 4.92±1.31
rate of platelet aggregation ([2]; 20mg/kg, 24h after modeling): 50.52±4.07 %
range of cerebral infarction rate of decrease ([2]; 20mg/kg): 59.10%
indicators of coagulation APTT ([2]; 20mg/kg): 62.48 ± 29.08 s
indicators of coagulation FIB ([2]; 20mg/kg): 3.38 ± 1.07 g/L
indicators of coagulation PT ([2]; 20mg/kg): 25.56 ± 5.30 s
indicators of coagulation TT ([2]; 20mg/kg): 95.55 ± 24.80 s
body weight 6h after surgery ([2]; 40mg/kg): 253.8 ± 12.1 g
body weight 24h after surgery ([2]; 40mg/kg): 244.2 ± 12.2 g
body weight prior to surgery ([2]; 40mg/kg): 265.8 ± 12.4 g
range of cerebral infarction ([2]; 40mg/kg gavage once daily 5 days): 2.04±1.43 %
behavior score ([2]; 40mg/kg, 6h after modeling): 5.75±1.42
serum enzymes AST ([2]; 40mg/kg, 24h after modeling): 152.9±33.0 u/L
serum enzymes LDH ([2]; 40mg/kg, 24h after modeling): 472.0±231.9 u/L
behavior score ([2]; 40mg/kg, 24h after modeling): 4.25±1.60
rate of platelet aggregation ([2]; 40mg/kg, 24h after modeling): 52.38±5.24 %
range of cerebral infarction rate of decrease ([2]; 40mg/kg): 64.64%
indicators of coagulation APTT ([2]; 40mg/kg): 75.15 ± 27.41 s
indicators of coagulation FIB ([2]; 40mg/kg): 3.59 ± 0.76 g/L
indicators of coagulation PT ([2]; 40mg/kg): 23.43 ± 8.66 s
indicators of coagulation TT ([2]; 40mg/kg): 62.04 ± 40.80 s
change of S-T segment after ligation ([3]; 20mg/kg gavage once daily 5 days, 5min after ligation): 0.17±0.11 mv
change of S-T segment after ligation ([3]; 20mg/kg gavage once daily 5 days, 30min after ligation): 0.12±0.09 mv
change of S-T segment after ligation ([3]; 20mg/kg gavage once daily 5 days, 1h after ligation): 0.11±0.08 mv
change of S-T segment after ligation ([3]; 20mg/kg gavage once daily 5 days, 2h after ligation): 0.11±0.07 mv
change of S-T segment after ligation ([3]; 20mg/kg gavage once daily 5 days, 4h after ligation): 0.11±0.08 mv
change of S-T segment after ligation ([3]; 20mg/kg gavage once daily 5 days, 24h after ligation): 0.07±0.08 mv
rate of platelet aggregation ([3]; 20mg/kg, 24h after ligation): 51.20±7.41 %
range of myocardial infarction ([3]; 20mg/kg): 3.50±2.68 %
range of myocardial infarction rate of decrease ([3]; 20mg/kg): 45.65%
indicators of coagulation APTT ([3]; 20mg/kg): 78.17 ± 28.14 s
indicators of coagulation FIB ([3]; 20mg/kg): 4.77 ± 1.11 g/L
indicators of coagulation PT ([3]; 20mg/kg): 25.90 ± 3.51 s
indicators of coagulation TT ([3]; 20mg/kg): 92.41 ± 42.37 s
myocardial enzymology AST [3, 5]: 0.61±0.26 ku/L
myocardial enzymology CK-MB [3, 5]: 0.71±0.45 ku/L
change of S-T segment after ligation ([3]; 40mg/kg gavage once daily 5 days, 5min after ligation): 0.14±0.12 mv
change of S-T segment after ligation ([3]; 40mg/kg gavage once daily 5 days, 30min after ligation): 0.06±0.06 mv
change of S-T segment after ligation ([3]; 40mg/kg gavage once daily 5 days, 1h after ligation): 0.05±0.04 mv
change of S-T segment after ligation ([3]; 40mg/kg gavage once daily 5 days, 2h after ligation): 0.05±0.04 mv
change of S-T segment after ligation ([3]; 40mg/kg gavage once daily 5 days, 4h after ligation): 0.06±0.05 mv
change of S-T segment after ligation ([3]; 40mg/kg gavage once daily 5 days, 24h after ligation): 0.02±0.03 mv
rate of platelet aggregation ([3]; 40mg/kg, 24h after ligation): 48.22±5.55 %
range of myocardial infarction ([3]; 40mg/kg): 2.52±2.16 %
range of myocardial infarction rate of decrease ([3]; 40mg/kg): 60.87%
indicators of coagulation APTT ([3]; 40mg/kg): 75.96 ± 35.87 s
indicators of coagulation FIB ([3]; 40mg/kg): 3.95 ± 0.84 g/L
indicators of coagulation PT ([3]; 40mg/kg): 25.75 ± 5.26 s
indicators of coagulation TT ([3]; 40mg/kg): 93.04 ± 35.64 s
myocardial enzymology AST [3, 6]: 0.61±0.20 ku/L
myocardial enzymology CK-MB [3, 6]: 0.80±0.68 ku/L
myocardial enzymology LDH [3, 6]: 0.61±0.24 ku/L

COCCOC(=O)C1=C(C)NC(C)=C(C(=O)OC(C)C)C1c1cccc([N+](=O)[O-])c1 (stereo not shown) [nimodipine, reference compound]
body weight 6h after surgery ([2]; 50mg/kg): 257.1 ± 11.4 g
body weight 24h after surgery ([2]; 50mg/kg): 249.6 ± 10.5 g
body weight prior to surgery ([2]; 50mg/kg): 265.8 ± 12.9 g
range of cerebral infarction ([2]; 50mg/kg gavage once daily 5 days): 2.27±2.56 %
behavior score ([2]; 50mg/kg, 6h after modeling): 6.50±1.68
serum enzymes AST ([2]; 50mg/kg, 24h after modeling): 198.6±118.2 u/L
serum enzymes LDH ([2]; 50mg/kg, 24h after modeling): 536.7±262.8 u/L
behavior score ([2]; 50mg/kg, 24h after modeling): 4.83±1.40
rate of platelet aggregation ([2]; 50mg/kg, 24h after modeling): 54.15±7.76%
range of cerebral infarction rate of decrease ([2]; 50mg/kg): 60.66%
indicators of coagulation APTT ([2]; 50mg/kg): 61.02 ± 44.79 s
indicators of coagulation FIB ([2]; 50mg/kg): 3.52 ± 1.14 g/L
indicators of coagulation PT ([2]; 50mg/kg): 23.38 ± 8.23 s
indicators of coagulation TT ([2]; 50mg/kg): 88.55 ± 32.24 s

O=C(O)[C@H]1O[C@@H](Oc2cc3oc(-c4ccc(O)cc4)cc(=O)c3c(O)c2O)[C@H](O)[C@@H](O)[C@@H]1O [scutellarin]
solubility ([4]; 0.01N NaOH): soluble
solubility ([4]; 95%EtOH): slightly soluble
solubility ([4]; H2O): very slightly soluble
solubility ([4]; MeOH): slightly soluble
solubility ([4]; n-BuOH): slightly soluble
